Entries after “also recorded” stand apart in the source; their conditions may differ.
molecular target: T1, human RORγ hybrids of both isoforms 1 and 2 (Homo sapiens, UniProt P51449); test: Human RAR-related Orphan Receptor Gamma Reporter Assay System; type: cell-based; conditions: not given
T1 sequence (P51449 259-518): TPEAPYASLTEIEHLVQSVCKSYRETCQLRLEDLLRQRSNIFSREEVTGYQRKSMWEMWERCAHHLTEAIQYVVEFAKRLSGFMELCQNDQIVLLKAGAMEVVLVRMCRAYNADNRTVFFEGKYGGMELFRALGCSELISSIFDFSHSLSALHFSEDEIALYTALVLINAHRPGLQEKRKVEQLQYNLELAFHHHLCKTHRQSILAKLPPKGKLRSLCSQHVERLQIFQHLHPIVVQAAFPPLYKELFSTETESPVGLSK

| SMILES | IC50 [µM] |
| --- | --- |
| CC1(c2cccc([N+](=O)[O-])c2)Nc2ccccc2C(=O)N1N=Cc1cc(Br)cc(Br)c1O (stereo not drawn) [Compound 34] | 10 |

same assay, conditions: result in words

| SMILES | RORγt activity in experimental testing (active / inactive) |
| --- | --- |
| Cc1cc(C=C2C(=O)NC(=S)N(c3cccc(Br)c3)C2=O)c(C)n1-c1ccc(S(N)(=O)=O)cc1 [Compound 2] | active |
| Cc1ccccc1-c1cc(C(=O)N2CCN(c3cccc(C(F)(F)F)c3)CC2)c2ccccc2n1 [Compound 12] | less active |
| Cc1ccc(-c2cc(C(=O)N3CCN(c4cccc(C(F)(F)F)c4)CC3)c3ccccc3n2)o1 [Compound 13] | less active |
| Cc1ccccc1-c1cc(C(=O)N2CCN(c3ccc([N+](=O)[O-])cc3)CC2)c2ccccc2n1 [Compound 16] | either insoluble or inactive |
| Cc1ccc(-c2cc(C(=O)N3CCN(c4ccc(F)cc4)CC3)c3ccccc3n2)cc1 [Compound 17] | either insoluble or inactive; also recorded: inactivity |
| O=C(COC(=O)c1cccc(N2C(=O)C3C4c5ccccc5C(c5ccccc54)C3C2=O)c1)c1ccccc1 (stereo not drawn) [Compound 18] | activity |
| O=C(COC(=O)c1cccc(N2C(=O)C3C4c5ccccc5C(c5ccccc54)C3C2=O)c1)c1ccc(Cl)cc1 (stereo not drawn) [Compound 19] | activity |
| O=C(Oc1ccc(N2C(=O)C3C4c5ccccc5C(c5ccccc54)C3C2=O)cc1)c1cccc([N+](=O)[O-])c1 (stereo not drawn) [Compound 20] | inactive |
| O=C(O)c1ccc(NC(=O)c2cccc(N3C(=O)C4C5c6ccccc6C(c6ccccc65)C4C3=O)c2)cc1 (stereo not drawn) [Compound 21] | inactive |
| CC1(c2cccc([N+](=O)[O-])c2)Nc2ccccc2C(=O)N1N=Cc1cc(Br)cc(Br)c1O (stereo not drawn) [Compound 34] | not a particularly potent inverse agonist |

test system: not given; test: not given; conditions: listed 15.11.2017 in the ChEMBL; cited from earlier work

| SMILES | log P |
| --- | --- |
| CC(C)CN(Cc1ccc(F)cc1)S(=O)(=O)c1ccc(NC2CCN(S(C)(=O)=O)CC2)nc1 [Compound 3QQ, N-(4-fluorobenzyl)-N-(2-methylpropyl)-6-{[1-(methylsulfonyl)piperidin-4-yl]amino}pyridine-3-sulfonamide] | 2.3 |
